From PMC7948474, “Structural basis of carnitine monooxygenase CntA substrate specificity, inhibition, and intersubunit electron transfer” (The Journal of Biological Chemistry, 2020)
“Also recorded” adds a separate entry of the source. Where two headings read alike, the source gives them in different places. One block for each molecule: values may come before it.

Columns and labels:
CutC = system: CutC; design: method as in PMID 30082863; conditions: irreversible covalent bond in the CutC catalytic site; cited from earlier work
CntA [1] = target: T1, CntA (Acinetobacter baumannii, UniProt D0C9N6); assay: Inhibitory IC50 determination against CntA (UV-visible enzyme assay); format: biochemical
T1 construct: made in house; host or cells: Escherichia coli BL21(DE3)pLysS
T1 sequence (D0C9N6 1-371): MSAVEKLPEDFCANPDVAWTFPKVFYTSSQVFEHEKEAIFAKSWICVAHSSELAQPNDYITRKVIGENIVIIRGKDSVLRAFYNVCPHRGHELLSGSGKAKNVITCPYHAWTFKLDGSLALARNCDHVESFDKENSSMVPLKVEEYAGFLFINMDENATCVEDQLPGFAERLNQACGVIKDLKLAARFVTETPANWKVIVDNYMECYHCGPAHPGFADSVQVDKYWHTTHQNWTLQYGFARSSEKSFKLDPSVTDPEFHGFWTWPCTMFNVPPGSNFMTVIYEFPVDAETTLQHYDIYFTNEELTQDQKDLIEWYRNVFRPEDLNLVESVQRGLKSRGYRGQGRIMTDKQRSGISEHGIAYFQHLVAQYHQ
Procedure: (§1) All activity assays were performed on a BMG FLOUstar Omega 96-well plate reader, set at wavelength 340 nm with a sample volume of 200 μl. The assay comprised combining mixture A 60 μg CntA and 60 μg CntB with mixture B 0.25 mM L-carnitine and 0.25 mM NADH in a 10 mM Hepes buffer, pH 7.6 with 250 mM NaCl and 0.5 mM TCEP. […] The reactions were measured for 5 min recording the linear decrease of signal at 340 nm for NADH oxidation. The slope of the line was measured between 60 and 120 s to yield the rate.
Compounds in the Pathogen Box (https://www.mmv.org/mmv-open/pathogen-box/about-pathogen-box) were received as 10 mM stocks dissolved in dimethylsulfoxide (DMSO). The compounds were added such that the final concentration was 50 μM in the 200-μl reaction. As per the “UV-visible enzyme assays” methodology above, the protein in mixture A was incubated with inhibitor compounds for 20 min before commencing the assay.
[…]. For each concentration, four replicates were carried out. IC50 values were determined using a built-in “Dose Response Inhibition” – [Inhibitor] versus response model in Prism 8 for macOS v8.2.0.

[2] = system: TMA production in A. baumannii cells; assay: Evaluation of inhibitors in A. baumannii cell culture (TMA production from carnitine); format: cell-based, Acinetobacter baumannii; conditions: inhibitor 200 μM; carnitine 1 mM; 37 °C, 1 h; N = 3
Procedure: A. baumannii cells were cultured overnight in the M9 minimal media at 37 °C with 10 mM L-carnitine as the sole carbon source. The cells were then collected by centrifugation and washed twice in a buffer containing 10 mM Hepes, 1 mM NaCl (pH 7.6). After wash, the cells were resuspended in the same buffer to a density of OD600 of 0.4. […]. These cells with appropriate treatments were incubated at 37 °C for 1 h. The supernatant was then obtained by filtering through a 0.2-μm filter and analyzed by ion chromatography by quantifying TMA production and carnitine degradation as described previously ([13]).

CntA [3] = target: T1, CntA; assay: Substrate profiling of carnitine analogs with CntA (structure–activity relationship); format: biochemical; conditions: substrate analogs tested as CntA substrates
Procedure: as §1

[4] = substrate: C[N+](C)(C)CC(O)CC(=O)[O-]; assay: Michaelis–Menten kinetics of CntA (UV-visible NADH oxidation assay); format: biochemical, Acinetobacter baumannii; conditions: other: substrate of CntA; n = 4; pH 7.6
Procedure: as §1
(§2) Michaelis–Menten kinetic parameters were derived using the UV-visible enzyme assays methodology above. Substrate concentrations were varied from a top concentration of 2 mM and decreasing in a twofold manner for 10 successive dilutions. Observed rates were obtained from four independent measurements and fitted to a nonlinear regression Michaelis–Menten model in Prism 8 for macOS v8.2.0.

[5] = substrate: CCCC[N+](C)(C)C; assay: as above; format: biochemical, Acinetobacter baumannii; conditions: other: substrate of CntA; n = 4; pH 7.6
Procedure: as §1, §2

[6] = substrate: C[N+](C)(C)NCCC(=O)[O-]; assay: as above; format: biochemical, Acinetobacter baumannii; conditions: other: substrate of CntA; n = 4; pH 7.6
Procedure: as §1, §2

[7] = substrate: C[N+](C)(C)CCCC(=O)[O-]; assay: as above; format: biochemical, Acinetobacter baumannii; conditions: other: substrate of CntA; n = 4; pH 7.6
Procedure: as §1, §2

Molecule: C[N+](C)(CF)CCO [FMC, N-(fluoromethyl)-2-hydroxy-N,N-dimethylethan-1-aminium]
EC50 (CutC): 0.056 µM

Molecule: c1csc(-c2cnc3sc(NCC4CCOCC4)nn23)c1 [MMV1, N-[(oxan-4-yl)methyl]-5-(thiophen-2-yl)imidazo[2,1-b][1,3,4]thiadiazol-2-amine]
IC50 (CntA [1]): 5.8 µM
Effect on TMA formation from carnitine in A. baumannii culture [2]: did not reduce TMA production; also recorded: did not inhibit TMA formation

Molecule: Brc1cncc(-c2cc(NCCCn3ccnc3)nc(-c3ccccc3)n2)c1 [MMV3, 6-(5-bromopyridin-3-yl)-N-[3-(1H-imidazol-1-yl)propyl]-2-phenylpyrimidin-4-amine]
IC50 (CntA [1]): 1.1 µM
Effect on TMA formation from carnitine in A. baumannii culture [2]: significant reduction; also recorded: almost completely inhibited TMA formation

IC50 (CntA [1]; dose response, N=3, read-out: IC50 (inhibition of CntA activity)): 35000 µM
Molecule: N#CS [SCN, thiocyanate]

Molecule: C[N+](C)(C)CC(O)CC(=O)[O-] (centres unmarked) [compound 1, Carnitine]
Oxidation by CntA (activity as substrate) (CntA [3]): oxidizing

Molecule: C[N+](C)(C)CCCC(=O)[O-] [compound 2, γ-butyrobetaine]
Oxidation by CntA (activity as substrate) (CntA [3]): oxidizing

Molecule: C[N+](C)(C)NCCC(=O)[O-] [compound 3, Meldonium]
Oxidation by CntA (activity as substrate) (CntA [3]): can also oxidize

Molecule: CCCC[N+](C)(C)C [compound 4, (1-Butyl)Trimethylammonium]
Oxidation by CntA (activity as substrate) (CntA [3]): can also oxidize

B1: CntA (Acinetobacter baumannii ATCC 19606 = CIP 70.34 = JCM 6841) (protein)
chain: MSAVEKLPEDFCANPDVAWTFPKVFYTSSQVFEHEKEAIFAKSWICVAHSSELAQPNDYITRKVIGENIVIIRGKDSVLRAFYNVCPHRGHELLSGSGKAKNVITCPYHAWTFKLDGSLALARNCDHVESFDKENSSMVPLKVEEYAGFLFINMDENATCVEDQLPGFAERLNQACGVIKDLKLAARFVTETPANWKVIVDNYMECYHCGPAHPGFADSVQVDKYWHTTHQNWTLQYGFARSSEKSFKLDPSVTDPEFHGFWTWPCTMFNVPPGSNFMTVIYEFPVDAETTLQHYDIYFTNEELTQDQKDLIEWYRNVFRPEDLNLVESVQRGLKSRGYRGQGRIMTDKQRSGISEHGIAYFQHLVAQYHQ
notes: made in house; host or cells: Escherichia coli BL21(DE3)pLysS
Vmax [4]: 59.0 (± 3.1) nmol/min/mg
Vmax [5]: 30.1 (± 3.4) nmol/min/mg
Vmax [6]: 43.8 (± 1.4) nmol/min/mg
Vmax [7]: 76.06 (± 1.6) nmol/min/mg
